{"source": "paper PMC3913017", "about": "“A Method for Fast Assessment of OP/CB Exposure in the Japanese Quail (Coturnix coturnix japonica) Using Combined Esterases Enzyme Activity as Biomarkers” (Enzyme Research, 2014)", "key": {"[1]": {"biological_target": "T1, cholinesterase (ChE) in blood plasma (Coturnix japonica, UniProt A0A8C2YFF6)", "T1 sequence (A0A8C2YFF6 30-604)": "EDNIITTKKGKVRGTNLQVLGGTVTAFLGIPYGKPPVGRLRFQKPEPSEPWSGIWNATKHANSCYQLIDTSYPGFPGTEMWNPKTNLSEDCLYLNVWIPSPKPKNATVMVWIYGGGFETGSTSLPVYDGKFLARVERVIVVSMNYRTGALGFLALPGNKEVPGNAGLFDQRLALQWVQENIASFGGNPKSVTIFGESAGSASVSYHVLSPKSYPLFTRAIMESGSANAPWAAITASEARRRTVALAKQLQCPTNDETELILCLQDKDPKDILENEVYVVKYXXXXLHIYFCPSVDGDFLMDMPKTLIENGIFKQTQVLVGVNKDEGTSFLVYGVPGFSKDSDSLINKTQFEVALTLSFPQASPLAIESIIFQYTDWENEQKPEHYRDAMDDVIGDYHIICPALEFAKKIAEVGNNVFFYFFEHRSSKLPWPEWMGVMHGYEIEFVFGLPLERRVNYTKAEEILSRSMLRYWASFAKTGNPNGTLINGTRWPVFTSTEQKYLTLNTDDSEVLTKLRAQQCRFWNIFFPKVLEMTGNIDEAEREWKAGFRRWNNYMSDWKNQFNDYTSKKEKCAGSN", "assay": "Substrate hydrolysis and kinetics, blood plasma ChE", "assay_type": "biochemical, Japanese quail (Coturnix coturnix japonica)", "settings": "for reaction rate of substrate hydrolysis, plasma: blood plasma, 1 mM AcTChI, BuTChI, 2 mM PrTChI", "procedure": "(§1) To obtain plasma, 1 mL blood samples were added to anticoagulant (heparin, 3.7 mg, final concentration 0.1%) in 5 mL centrifuge tubes. Plasma was separated by centrifugation at 5000 g for 10 min. The liver was removed using a scalpel, cut into small pieces (2-3 mm^3), and rinsed until the blood was fully removed. The liver was then placed on ice in 5 mL tubes (5 mm internal diameter) and homogenized using a mechanically driven homogenizer with phosphate buffer (0.1 M, pH 8) with a 1 : 10 ratio (w/v) of 1 part of liver tissue to 9 parts of buffer and a speed of 10000 rpm. Homogenisation required 3 min; after every one min or so of homogenization, the mixture was rested for 30 s to allow cooling. The homogenate was then centrifuged at 5000 g for 10 min and the supernatant fraction was retained and used for subsequent analyses.\n(§2) Enzyme activity was determined at room temperature 25°C by the Ellman method [18], and using thioacetate (PSA) for measuring CbE enzyme activity or by using thiocholine (e.g., AcTChI, BuTChI, or PrTChI substrate) for measuring ChE enzyme activities [19]. […] Substrate solutions (final concentration 2 mM for PrTChI and PSA, while 1 mM for AcTChI and BuTChI) were prepared and used on the same day and kept on ice during use. Enzyme activities were calculated using an extinction coefficient of 13.6 mM^−1 cm^−1 for TNB [21] and are expressed as units (1 U ≡ 1 μmol ≡ 1000 nmol of substrate hydrolysed per min) per g wet weight of liver homogenate, while for plasma they are expressed as U/mL [2]. All measurements in this paper were carried out in duplicate."}, "[2]": {"test_system": "cholinesterase (ChE) in liver homogenate", "assay": "Substrate hydrolysis, liver homogenate ChE", "assay_type": "biochemical, Japanese quail (Coturnix coturnix japonica)", "settings": "1 mM AcTChI, BuTChI, 2 mM PrTChI", "procedure": "as §1\n(§3) Enzyme activity was determined at room temperature 25°C by the Ellman method [18], and using thioacetate (PSA) for measuring CbE enzyme activity or by using thiocholine (e.g., AcTChI, BuTChI, or PrTChI substrate) for measuring ChE enzyme activities [19]. […] Enzyme activities were calculated using an extinction coefficient of 13.6 mM^−1 cm^−1 for TNB [21] and are expressed as units (1 U ≡ 1 μmol ≡ 1000 nmol of substrate hydrolysed per min) per g wet weight of liver homogenate, while for plasma they are expressed as U/mL [2]. […]"}, "[3]": {"biological_target": "carboxylesterase (CbE) in blood plasma", "assay": "In vitro inhibition of blood plasma CbE by CB/OP pesticides (Ellman, PSA substrate)", "assay_type": "biochemical, Japanese quail (Coturnix coturnix japonica)", "settings": "for IC50: substrate PSA, 30 min 25°C, mean ± SE, read-out: Half maximal inhibitory concentration (IC50), PSA", "procedure": "To obtain plasma, 1 mL blood samples were added to anticoagulant (heparin, 3.7 mg, final concentration 0.1%) in 5 mL centrifuge tubes. Plasma was separated by centrifugation at 5000 g for 10 min.\nas §2\nThen esterases enzyme activity was measured as explained in the above section. For the measurement of half maximal inhibitory concentrations (IC50), samples were inhibited for 30 min at room temperature 25°C with appropriate concentration of CB or OP pesticide compounds, depending on preliminary range finding tests. Controls that were incubated with phosphate buffer pH 8.0 were included. Then the enzyme activity was determined as described above. Then the data were fitted with nonlinear regression analysis using a single exponential decay by SigmaPlot 11 (Systat software, Inc.)."}, "[4]": {"biological_target": "T1, cholinesterase (ChE) in blood plasma", "assay": "Inhibition rate constant (ki), blood plasma ChE (thiocholine substrates)", "settings": "for ki value, range: blood plasma, range over the substrates AcTChI, BuTChI, PrTChI and PSA", "procedure": "as §2\nControls that were incubated with phosphate buffer pH 8.0 were included when appropriated. Blanks were also run at each selected inhibitor for each based on the absorbance tested. Then the enzyme activity was determined as described in above. The decrease in esterases enzyme activity over different times (1–60 min) at room temperature 25°C was detected. Then the data of inhibition time courses at different times after inhibition was fitted with a single exponential decay using SigmaPlot 11. However, the percentage inhibition was calculated from the ratio between the activity of an exposed sample and unexposed controls by the following formula: (1) % Inhibition =Esterases enzyme activity with inhibitor/Esterases enzyme activity without inhibitor×100."}, "[5]": {"test_system": "carboxylesterase (CbE) in blood plasma", "assay": "Inhibition rate constant (ki), blood plasma CbE (PSA substrate)", "assay_type": "biochemical, Japanese quail (Coturnix coturnix japonica)", "settings": "4 mM methomyl, 2 mM parathion, malathion, trichlorfon, 1–60 min, 25°C, mean ± SE", "experimental": "Blanks were also run at each selected inhibitor for each based on the absorbance tested. Then the enzyme activity was determined as described in above. The decrease in esterases enzyme activity over different times (1–60 min) at room temperature 25°C was detected. Then the data of inhibition time courses at different times after inhibition was fitted with a single exponential decay using SigmaPlot 11. However, the percentage inhibition was calculated from the ratio between the activity of an exposed sample and unexposed controls by the following formula: (1) % Inhibition =[…]."}, "quails": {"test_system": "quails", "settings": "cited from earlier work"}, "[6]": {"test_system": "carboxylesterase (CbE) in blood plasma", "assay": "Substrate hydrolysis, blood plasma CbE (PSA)", "assay_type": "biochemical, Japanese quail (Coturnix coturnix japonica)", "settings": "2 mM PSA", "procedure": "as §1, §3"}, "[7]": {"test_system": "carboxylesterase (CbE) in liver homogenate", "assay": "Substrate hydrolysis and kinetics, liver homogenate CbE (PSA)", "assay_type": "biochemical, Japanese quail (Coturnix coturnix japonica)", "procedure": "as §1, §2"}, "[8]": {"biological_target": "T1, cholinesterase (ChE) in blood plasma", "assay": "In vivo oral exposure 48 h, plasma ChE inhibition", "design": "species or system Japanese quail (Coturnix coturnix japonica)", "experimental": "The extent of inhibition of esterases enzyme activity was also assessed following in vivo exposure of test of quail by oral dosing (n = 15) were exposed to test solutions of parathion, malathion, methomyl, trichlorfon, or control (water) in cages. […] Samples were prepared and assayed as explained in the above section."}, "CbE enzyme": {"test_system": "CbE enzyme", "assay": "Incubation with general serine esterase inhibitor, CbE activity", "assay_type": "biochemical, Japanese quail (Coturnix coturnix japonica)", "settings": "3 mM inhibitor"}, "ChE enzyme": {"test_system": "ChE enzyme", "assay": "Incubation with general serine esterase inhibitor, ChE activity", "assay_type": "biochemical, Japanese quail (Coturnix coturnix japonica)", "settings": "3 mM inhibitor"}, "[9]": {"settings": "read-out: inhibition of control activity"}}, "note": "Read-outs that look alike come from different tables or passages of the source.", "data": [{"smiles": "CCCC(=O)SCC[N+](C)(C)C.[I-]", "note": "[BuTChI, (2-mercaptoethyl) trimethylammonium iodide butyrate]", "values": [{"measurement": "Vmax", "setting": "[1]; blood plasma ChE, Figure 4(a)", "result": 1011, "unit": "nmol/min/mL"}, {"measurement": "Km", "setting": "[1]; blood plasma ChE, substrate 0.125–2 mM, read-out: Km (apparent Michaelis constant)", "result": 394, "unit": "µM"}, {"measurement": "reaction rate of substrate hydrolysis, plasma", "setting": "[1]", "result": 1321.5, "unit": "nmol/min/mL"}, {"measurement": "reaction rate of substrate hydrolysis, liver homogenate", "setting": "[2]", "result": 304.5, "unit": "nmol/min/g"}]}, {"smiles": "CCOC(=O)CC(SP(=S)(OC)OC)C(=O)OCC", "note": "(stereo not shown) [Malathion, S-1,2-bis(ethoxycarbonyl) ethyl O,O-dimethyl phosphorodithioate]", "values": [{"measurement": "IC50", "setting": "[3]", "result": "910 ± 400", "unit": "µM"}, {"measurement": "ki value, range", "setting": "[4]", "result": "0.0358 to 0.1756", "unit": "min⁻¹"}, {"measurement": "inhibition at 2000 µM", "setting": "[4]; [9]", "result": "83 to 99", "unit": "%"}, {"measurement": "Rate constant inhibition (ki), PSA", "setting": "[5]", "result": "175.6 ± 16.0 × 10^−3 min^−1"}, {"measurement": "median lethal dose (LD50)", "setting": "quails; oral, quails", "result": 400, "unit": "mg/kg"}]}, {"smiles": "CNC(=O)ON=C(C)SC", "note": "[Methomyl, S-methyl-N((methylcarbamoyl)oxy) thioacetimidate]", "values": [{"measurement": "CbE enzyme activity sensitivity to inhibition", "setting": "[3]; in vitro, PSA, Figure 10(a)", "result": "insensitive to the CB methomyl except at high concentrations"}, {"measurement": "IC50", "setting": "[3]", "result": "610 ± 20", "unit": "µM"}, {"measurement": "ki value, range", "setting": "[4]", "result": "0.1224 to 0.5674", "unit": "min⁻¹"}, {"measurement": "inhibition at 4000 µM", "setting": "[4]; [9]", "result": "83 to 99", "unit": "%"}, {"measurement": "Rate constant inhibition (ki), PSA", "setting": "[5]", "result": "345.3 ± 12.4 × 10^−3 min^−1"}, {"measurement": "median lethal dose (LD50)", "setting": "quails; in vivo, po", "result": 24.2, "unit": "mg/kg"}]}, {"smiles": "CC(=O)Sc1ccccc1", "note": "[PSA, thiophenyl acetate]", "values": [{"measurement": "reaction rate of substrate hydrolysis, plasma", "setting": "[6]", "result": 68.9, "unit": "nmol/min/mL"}, {"measurement": "Vmax", "setting": "[7]; liver CbE, Figure 4(b)", "result": 1195, "unit": "nmol/min/g"}, {"measurement": "Km", "setting": "[7]; liver CbE, substrate 0.25–4 mM, read-out: apparent Km", "result": 713, "unit": "µM"}, {"measurement": "reaction rate of substrate hydrolysis, liver homogenate", "setting": "[7]; liver homogenate, 2 mM PSA", "result": 1.765, "unit": "µmol/min/g"}]}, {"smiles": "CCOP(=S)(OCC)Oc1ccc([N+](=O)[O-])cc1", "note": "[Parathion, O,O-diethyl O-(4-nitrophenyl) phosphorothioate]", "values": [{"measurement": "IC50", "setting": "[3]", "result": "220 ± 60", "unit": "µM"}, {"measurement": "ki value, range", "setting": "[4]", "result": "0.4532 to 0.8233", "unit": "min⁻¹"}, {"measurement": "Rate constant inhibition (ki), PSA", "setting": "[5]", "result": "453.2 ± 5.6 × 10^−3 min^−1"}, {"measurement": "median lethal dose (LD50)", "setting": "quails; oral, quails", "result": 6, "unit": "mg/kg"}]}, {"smiles": "CCC(=O)SCC[N+](C)(C)C.[I-]", "note": "[PrTChI, (2-mercaptoethyl) trimethylammonium iodide propionate]", "values": [{"measurement": "reaction rate of substrate hydrolysis, plasma", "setting": "[1]", "result": 211.9, "unit": "nmol/min/mL"}, {"measurement": "reaction rate of substrate hydrolysis, liver homogenate", "setting": "[2]", "result": 113.9, "unit": "nmol/min/g"}]}, {"smiles": "COP(=O)(OC)C(O)C(Cl)(Cl)Cl", "note": "(stereo not shown) [Trichlorfon, dimethyl (2,2,2-trichloro-1-hydroxyethyl) phosphonate]", "values": [{"measurement": "IC50", "setting": "[3]", "result": "510 ± 90", "unit": "µM"}, {"measurement": "ki value, range", "setting": "[4]", "result": "0.3451 to 0.9769", "unit": "min⁻¹"}, {"measurement": "Rate constant inhibition (ki), PSA", "setting": "[5]", "result": "976.9 ± 8.9 × 10^−3 min^−1"}, {"measurement": "inhibition at 11 mg/kg", "setting": "[8]; read-out: % inhibition compared with the control, plasma, AcTChI", "result": 12.1, "unit": "%"}, {"measurement": "inhibition at 11 mg/kg", "setting": "[8]; read-out: % inhibition compared with the control, plasma, BuTChI", "result": 33.2, "unit": "%"}, {"measurement": "inhibition at 11 mg/kg", "setting": "[8]; read-out: % inhibition compared with the control, plasma, PrTChI", "result": 11.7, "unit": "%"}, {"measurement": "median lethal dose (LD50)", "setting": "quails; oral, quails", "result": 22, "unit": "mg/kg"}]}, {"smiles": "O=S(=O)(F)Cc1ccccc1", "note": "[phenylmethanesulfonyl fluoride]", "values": [{"measurement": "level of CbE enzyme activity after incubation", "setting": "CbE enzyme", "result": "insignificant levels"}, {"measurement": "level of ChE enzyme activity after incubation", "setting": "ChE enzyme", "result": "insignificant levels"}]}]}
